# From PubChem BioAssay (NCI)
#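 1) Cells in 96-well plates. 2) Compound, 48 h, 5 concentrations. 3) Linear interpolation between surrounding doses. 4) Unreached endpoint = highest concentration. Abbreviation: GI50, concentration required for 50% inhibition of growth. The concentration for full growth arrest is given as TGI.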
# Columns and labels:
# Experiment in all cases: NCI-60 cell line screen, 48 h
# 786-0 renal = tested on: 786-0 renal
# A549 NSCLC = tested on: A549 NSCLC
# ACHN renal = tested on: ACHN renal
# CCRF-CEM leukemia = tested on: CCRF-CEM leukemia
# COLO 205 colon = tested on: COLO 205 colon
# DLD-1 colon = tested on: DLD-1 colon
# DMS 114 small cell lung = tested on: DMS 114 small cell lung
# DMS 273 small cell lung = tested on: DMS 273 small cell lung
# HCC-2998 colon = tested on: HCC-2998 colon
# HCT-116 colon = tested on: HCT-116 colon
# HCT-15 colon = tested on: HCT-15 colon
# HL-60(TB) leukemia = tested on: HL-60(TB) leukemia
# HOP-18 NSCLC = tested on: HOP-18 NSCLC
# HOP-62 NSCLC = tested on: HOP-62 NSCLC
# HOP-92 NSCLC = tested on: HOP-92 NSCLC
# HT29 colon = tested on: HT29 colon
# IGROV1 ovarian = tested on: IGROV1 ovarian
# K-562 leukemia = tested on: K-562 leukemia
# KM12 colon = tested on: KM12 colon
# KM20L2 colon = tested on: KM20L2 colon
# LOX IMVI melanoma = tested on: LOX IMVI melanoma
# LXFL 529 NSCLC = tested on: LXFL 529 NSCLC
# M14 melanoma = tested on: M14 melanoma
# M19-MEL melanoma = tested on: M19-MEL melanoma
# MALME-3M melanoma = tested on: MALME-3M melanoma
# NCI-H226 lung = tested on: NCI-H226 lung
# NCI-H460 lung = tested on: NCI-H460 lung
# NCI-H522 lung = tested on: NCI-H522 lung
# OVCAR-3 ovarian = tested on: OVCAR-3 ovarian
# OVCAR-4 ovarian = tested on: OVCAR-4 ovarian
# OVCAR-5 ovarian = tested on: OVCAR-5 ovarian
# OVCAR-8 ovarian = tested on: OVCAR-8 ovarian
# RPMI-8226 leukemia = tested on: RPMI-8226 leukemia
# RXF 393 renal = tested on: RXF 393 renal
# SF-268 CNS = tested on: SF-268 CNS
# SF-539 CNS = tested on: SF-539 CNS
# SK-MEL-2 melanoma = tested on: SK-MEL-2 melanoma
# SK-MEL-28 melanoma = tested on: SK-MEL-28 melanoma
# SK-MEL-5 melanoma = tested on: SK-MEL-5 melanoma
# SK-OV-3 ovarian = tested on: SK-OV-3 ovarian
# SN12C renal = tested on: SN12C renal
# SNB-19 CNS = tested on: SNB-19 CNS
# SNB-78 CNS = tested on: SNB-78 CNS
# SR leukemia = tested on: SR leukemia
# SW-620 colon = tested on: SW-620 colon
# TK-10 renal = tested on: TK-10 renal
# U251 CNS = tested on: U251 CNS
# UACC-62 melanoma = tested on: UACC-62 melanoma
# UO-31 renal = tested on: UO-31 renal
# XF 498 CNS = tested on: XF 498 CNS
# A498 renal = tested on: A498 renal
# CAKI-1 renal = tested on: CAKI-1 renal
# EKVX NSCLC = tested on: EKVX NSCLC
# NCI-H23 lung = tested on: NCI-H23 lung
# SF-295 CNS = tested on: SF-295 CNS
# SNB-75 CNS = tested on: SNB-75 CNS
# UACC-257 melanoma = tested on: UACC-257 melanoma
smiles,measurement,setting,value
COc1cc(C)cc2c1[nH]c1ccccc12,GI50,786-0 renal,9.37 µM
same,TGI,786-0 renal,> 25 µM
same,TGI,A549 NSCLC,> 25 µM
same,GI50,ACHN renal,23.4 µM
same,TGI,ACHN renal,> 25 µM
same,GI50,CCRF-CEM leukemia,15.4 µM
same,TGI,CCRF-CEM leukemia,> 25 µM
same,GI50,COLO 205 colon,12.4 µM
same,TGI,COLO 205 colon,> 25 µM
same,GI50,DLD-1 colon,10.5 µM
same,TGI,DLD-1 colon,> 25 µM
same,TGI,DMS 114 small cell lung,> 25 µM
same,GI50,DMS 273 small cell lung,7.73 µM
same,TGI,DMS 273 small cell lung,> 25 µM
same,GI50,HCC-2998 colon,14.9 µM
same,TGI,HCC-2998 colon,> 25 µM
same,GI50,HCT-116 colon,11.4 µM
same,TGI,HCT-116 colon,> 25 µM
same,GI50,HCT-15 colon,7.45 µM
same,TGI,HCT-15 colon,> 25 µM
same,GI50,HL-60(TB) leukemia,6.88 µM
same,TGI,HL-60(TB) leukemia,> 25 µM
same,GI50,HOP-18 NSCLC,0.29 µM
same,TGI,HOP-18 NSCLC,12.7 µM
same,TGI,HOP-62 NSCLC,18.6 µM
same,GI50,HOP-92 NSCLC,23.5 µM
same,TGI,HOP-92 NSCLC,> 25 µM
same,GI50,HT29 colon,7.78 µM
same,TGI,HT29 colon,> 25 µM
same,GI50,IGROV1 ovarian,14.8 µM
same,TGI,IGROV1 ovarian,> 25 µM
same,TGI,K-562 leukemia,> 25 µM
same,GI50,KM12 colon,8.12 µM
same,TGI,KM12 colon,> 25 µM
same,GI50,KM20L2 colon,7.53 µM
same,TGI,KM20L2 colon,19.6 µM
same,GI50,LOX IMVI melanoma,12.7 µM
same,TGI,LOX IMVI melanoma,> 25 µM
same,GI50,LXFL 529 NSCLC,18.3 µM
same,TGI,LXFL 529 NSCLC,> 25 µM
same,GI50,M14 melanoma,7.24 µM
same,TGI,M14 melanoma,22.1 µM
same,GI50,M19-MEL melanoma,18.3 µM
same,TGI,M19-MEL melanoma,> 25 µM
same,GI50,MALME-3M melanoma,8.11 µM
same,TGI,MALME-3M melanoma,> 25 µM
same,GI50,NCI-H226 lung,8.44 µM
same,TGI,NCI-H226 lung,> 25 µM
same,GI50,NCI-H460 lung,7.83 µM
same,TGI,NCI-H460 lung,> 25 µM
same,GI50,NCI-H522 lung,4.24 µM
same,TGI,NCI-H522 lung,13.3 µM
same,TGI,OVCAR-3 ovarian,> 25 µM
same,TGI,OVCAR-4 ovarian,> 25 µM
same,TGI,OVCAR-5 ovarian,> 25 µM
same,TGI,OVCAR-8 ovarian,23.9 µM
same,TGI,RPMI-8226 leukemia,> 25 µM
same,TGI,RXF 393 renal,22.5 µM
same,GI50,SF-268 CNS,14.3 µM
same,TGI,SF-268 CNS,> 25 µM
same,GI50,SF-539 CNS,6.01 µM
same,TGI,SF-539 CNS,14.5 µM
same,GI50,SK-MEL-2 melanoma,7.33 µM
same,TGI,SK-MEL-2 melanoma,> 25 µM
same,GI50,SK-MEL-28 melanoma,16.3 µM
same,TGI,SK-MEL-28 melanoma,> 25 µM
same,GI50,SK-MEL-5 melanoma,9.19 µM
same,TGI,SK-MEL-5 melanoma,> 25 µM
same,GI50,SK-OV-3 ovarian,20.9 µM
same,TGI,SK-OV-3 ovarian,> 25 µM
same,GI50,SN12C renal,14.1 µM
same,TGI,SN12C renal,> 25 µM
same,TGI,SNB-19 CNS,> 25 µM
same,TGI,SNB-78 CNS,> 25 µM
same,GI50,SR leukemia,10.3 µM
same,TGI,SR leukemia,> 25 µM
same,GI50,SW-620 colon,8.35 µM
same,TGI,SW-620 colon,> 25 µM
same,TGI,TK-10 renal,> 25 µM
same,GI50,U251 CNS,10.4 µM
same,TGI,U251 CNS,> 25 µM
same,GI50,UACC-62 melanoma,15 µM
same,TGI,UACC-62 melanoma,> 25 µM
same,GI50,UO-31 renal,15 µM
same,TGI,UO-31 renal,> 25 µM
same,GI50,XF 498 CNS,22.6 µM
same,TGI,XF 498 CNS,> 25 µM
CCOc1ccccc1N1C(=O)C(=O)C(c2nc3ccccc3s2)C(=O)C1=O,TGI,786-0 renal,20.8 µM
same,TGI,A498 renal,39 µM
same,TGI,A549 NSCLC,> 100 µM
same,TGI,ACHN renal,54 µM
same,TGI,CAKI-1 renal,> 100 µM
same,TGI,COLO 205 colon,> 100 µM
same,TGI,DLD-1 colon,> 100 µM
same,TGI,DMS 114 small cell lung,> 100 µM
same,TGI,DMS 273 small cell lung,> 100 µM
same,TGI,EKVX NSCLC,> 100 µM
same,TGI,HCC-2998 colon,> 100 µM
same,TGI,HCT-116 colon,> 100 µM
same,TGI,HCT-15 colon,> 100 µM
same,TGI,HOP-18 NSCLC,69.8 µM
same,TGI,HOP-62 NSCLC,> 100 µM
same,TGI,HOP-92 NSCLC,> 100 µM
same,TGI,HT29 colon,> 100 µM
same,TGI,IGROV1 ovarian,> 100 µM
same,TGI,KM12 colon,> 100 µM
same,TGI,KM20L2 colon,> 100 µM
same,TGI,LOX IMVI melanoma,> 100 µM
same,TGI,LXFL 529 NSCLC,> 100 µM
same,TGI,M14 melanoma,> 100 µM
same,TGI,M19-MEL melanoma,> 100 µM
same,TGI,MALME-3M melanoma,> 100 µM
same,TGI,NCI-H226 lung,> 100 µM
same,TGI,NCI-H23 lung,> 100 µM
same,TGI,NCI-H460 lung,> 100 µM
same,TGI,OVCAR-3 ovarian,44.2 µM
same,TGI,OVCAR-4 ovarian,17.8 µM
same,TGI,OVCAR-5 ovarian,> 100 µM
same,TGI,OVCAR-8 ovarian,> 100 µM
same,TGI,RPMI-8226 leukemia,> 100 µM
same,TGI,RXF 393 renal,> 100 µM
same,TGI,SF-268 CNS,> 100 µM
same,TGI,SF-295 CNS,> 100 µM
same,TGI,SF-539 CNS,> 100 µM
same,TGI,SK-MEL-2 melanoma,> 100 µM
same,TGI,SK-MEL-28 melanoma,> 100 µM
same,TGI,SK-OV-3 ovarian,> 100 µM
same,TGI,SN12C renal,> 100 µM
same,TGI,SNB-19 CNS,> 100 µM
same,TGI,SNB-75 CNS,> 100 µM
same,TGI,SNB-78 CNS,> 100 µM
same,TGI,SW-620 colon,> 100 µM
same,TGI,TK-10 renal,> 100 µM
same,TGI,U251 CNS,> 100 µM
same,TGI,UACC-257 melanoma,> 100 µM
same,TGI,UACC-62 melanoma,> 100 µM
same,TGI,UO-31 renal,> 100 µM
same,TGI,XF 498 CNS,> 100 µM
